In patent US11186564B2, “Dual NAV1.2/5HT2a inhibitors for treating CNS disorders” (Sunovion Pharmaceuticals Inc., priority 2016, dated 2021):

Biological target: T1, recombinant human serotonin receptor 5-HT2A (Homo sapiens, UniProt P28223)
T1 construct: expressed in transfected cells; method B: loaded with Ca2+ dye
Experiment: 5-HT2A antagonist Ca2+ assay in CHO-K1 cells (method A aequorin luminescence / method B FLIPR fluorescence)
Format: cell-based
Conditions: antagonist mode vs EC80 of reference agonist, method A or B, read-out: 5HT2A IC50
Text: The methods utilized to assess the inhibitory activity of compounds on recombinant human serotonin receptor 5-HT2A was based upon previously published approaches [Jerman J C, Brough S J, Gager T, Wood M, Coldwell M C, Smart D, Middlemiss D N. Pharmacological characterisation of human 5-HT2 receptor subtypes. European Journal of Pharmacology 2001 Feb. 23; 414(1):23-30; Le Poul E, Hisada S, Mizuguchi Y, Dupriez V J, Burgeon E, Detheux M. Adaptation of aequorin functional assay to high throughput screening. J Biomolecular Screening 2002 February; 7(1):57-65.] The 5-HT2A receptor signals through Gq-phospholipase signaling cascade, which leads to a transient increase in free intracellular […] concentration. Both 5-HT2A assay methods rely upon monitoring these changes in Ca^2+ concentration.
In method A [Le Poul E, Hisada S, Mizuguchi Y, Dupriez V J, Burgeon E, Detheux M. (2002)], CHO-K1 cells engineered to stably co-express both recombinant human 5-HT2A and mitochondrial apoaequorin are used. […] For agonist testing, 50 microliters of cell suspension is mixed with 50 microliters of a solution containing test compound or reference agonist in a 96-well standard geometry microtiter plate. The resulting emission of light was recorded using a Hamamatsu Functional Drug Screening System 6000 (FDSS 6000) luminometer. For antagonist testing, 100 microliters of the solution of reference agonist (to yield an agonist concentration, EC80, sufficient to cause the cells to generate an 80% maximal luminescence response in the absence of any antagonist) is injected into the mix of cells and test compound, 15 minutes after the first injection. The resulting emission of light is recorded using Hamamatsu FDSS 6000 luminometer. IC50 values are calculated (from compound concentration dependent inhibition of agonist-induced 5-HT2A-dependent light emission) by non-linear least squares regression of the data (percent inhibition) onto equation (1) above.
In method B [Jerman J C, Brough S J, Gager T, Wood M, Coldwell M C, Smart D, Middlemiss D N. (2001)], CHO-K1 cells which had been engineered to stably co-express recombinant human 5-HT2A are used in assay done similarly to method A. In method B, the cells are loaded with a fluorogenic Ca^2+ indicator dye by pre-incubation. Addition of the reference agonist serotonin causes a transient increase in fluorescence in a suspension of the loaded cells, which can be detected using the Molecular Devices fluorometric imaging plate reader (FLIPR), a high-throughput platform for 96-well cell-based assays. Addition of test compounds that are 5-HT2A antagonists, prior to the addition of the agonist (to yield an agonist concentration, EC80, sufficient to cause the cells to generate an 80% maximal fluorescence response in the absence of any antagonist), reduces the amount of fluorescence detected by the FLIPR upon agonist addition. IC50 values are calculated (from compound concentration dependent inhibition of agonist-induced 5-HT2A-dependent fluorescence) by non-linear least squares regression of the data (percent inhibition) onto equation (1) above.

T1 sequence (P28223 whole entry): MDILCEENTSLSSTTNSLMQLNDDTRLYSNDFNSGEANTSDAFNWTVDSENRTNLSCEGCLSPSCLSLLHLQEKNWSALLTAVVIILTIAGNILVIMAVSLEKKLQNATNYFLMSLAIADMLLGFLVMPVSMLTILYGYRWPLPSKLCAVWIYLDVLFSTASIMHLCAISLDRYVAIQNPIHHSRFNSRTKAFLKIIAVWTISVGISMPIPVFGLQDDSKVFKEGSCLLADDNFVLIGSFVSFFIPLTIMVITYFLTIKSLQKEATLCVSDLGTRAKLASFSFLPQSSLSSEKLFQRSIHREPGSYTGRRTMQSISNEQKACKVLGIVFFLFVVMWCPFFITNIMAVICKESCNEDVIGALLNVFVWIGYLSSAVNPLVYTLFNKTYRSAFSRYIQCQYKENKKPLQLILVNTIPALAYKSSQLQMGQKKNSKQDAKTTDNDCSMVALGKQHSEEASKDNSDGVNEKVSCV

SMILES	IC50 [nM]
COc1ccc2c(c1)[C@@H](CN1C[C@@H]3CC[C@H]1CN3c1ccccc1)CC2 (single isomer, unassigned) [Compound 311]	10
COc1ccc2c(c1)[C@H](CN1C[C@@H]3CC[C@H]1CN3c1ccccc1)CC2 (single isomer, unassigned) [Compound 312]	430
COc1ccc2c(c1)C(CN1C[C@H]3CC[C@@H]1CN3c1ccccc1)CC2 (single isomer, unassigned) [Compound 313]	> 10000
COc1ccc2c(c1)C(CN1C[C@H]3CC[C@@H]1CN3c1ccccc1)CC2 (single isomer, unassigned) [Compound 314]	> 10000
COc1ccccc1OC1CCN(CC2Cc3ccccc3C2)[C@@H](C)C1 (single isomer, unassigned) [Example 148]	1440
OC(CO[C@H]1CCc2ccccc21)CN1CCC(Oc2ccc(F)cc2)CC1 (stereo in doubt) [Example 237, (R)-1-(((S)-2,3-dihydro-1H-inden-1-yl)oxy)-3-(4-(4-fluorophenoxy)piperidin-1-yl)propan-2-ol]	600
Fc1ccc(O[C@@H]2CCN(CC3CCc4cnccc43)C2)cc1 (stereo partly drawn) [Example 1, 5-(((R)-3-(4-fluorophenoxy)pyrrolidin-1-yl)methyl)-6,7-dihydro-5H-cyclopenta[c]pyridine]	2300
Fc1ccc(O[C@H]2CCN(CC3CCc4cnccc43)C2)cc1 (stereo partly drawn) [Example 2, 5-(((S)-3-(4-fluorophenoxy)pyrrolidin-1-yl)methyl)-6,7-dihydro-5H-cyclopenta[c]pyridine]	1250
Fc1ccc(O[C@H]2CCN(CC3CCc4ncccc43)C2)cc1 (stereo partly drawn) [Example 4, 5-(((S)-3-(4-fluorophenoxy)pyrrolidin-1-yl)methyl)-6,7-dihydro-5H-cyclopenta[b]pyridine]	1450
Fc1ccc(O[C@@H]2CCN(CC3CCc4ccncc43)C2)cc1 (stereo partly drawn) [Example 5, 7-(((R)-3-(4-fluorophenoxy)pyrrolidin-1-yl)methyl)-6,7-dihydro-5H-cyclopenta[c]pyridine]	5880
Fc1ccc(O[C@H]2CCN(CC3CCc4ccncc43)C2)cc1 (stereo partly drawn) [Example 6, 7-(((S)-3-(4-fluorophenoxy)pyrrolidin-1-yl)methyl)-6,7-dihydro-5H-cyclopenta[c]pyridine]	3000
Fc1ccc(O[C@@H]2CCN(CC3CCc4cccnc43)C2)cc1 (stereo partly drawn) [Example 7, 7-(((R)-3-(4-fluorophenoxy)pyrrolidin-1-yl)methyl)-6,7-dihydro-5H-cyclopenta[b]pyridine]	1010
COc1ccccc1O[C@@H]1CCN(CCN2CCc3ccccc3C2=O)C1 [Example 13, (R)-2-(2-(3-(2-methoxyphenoxy)pyrrolidin-1-yl)ethyl)-3,4-dihydroisoquinolin-1(2H)-one]	1930
COc1ccccc1O[C@H]1CCN(CCN2CCc3ccccc3C2=O)C1 [Example 14, (S)-2-(2-(3-(2-methoxyphenoxy)pyrrolidin-1-yl)ethyl)-3,4-dihydroisoquinolin-1(2H)-one]	7470
O=C1c2ccccc2CCN1CCN1CC[C@@H](Oc2ccccn2)C1 [Example 15, (R)-2-(2-(3-(pyridin-2-yloxy)pyrrolidin-1-yl)ethyl)-3,4-dihydroisoquinolin-1(2H)-one]	> 16700
O=C1c2ccccc2CCN1CCN1CC[C@H](Oc2ccccn2)C1 [Example 16, (S)-2-(2-(3-(pyridin-2-yloxy)pyrrolidin-1-yl)ethyl)-3,4-dihydroisoquinolin-1(2H)-one]	1850

SMILES	IC50 [nM]
COc1ccccc1O[C@@H]1CCN(CCN2CCc3ccccc3C2=O)[C@H]1C [Example 17, 2-(2-((2S,3R)-3-(2-methoxyphenoxy)-2-methylpyrrolidin-1-yl)ethyl)-3,4-dihydroisoquinolin-1(2H)-one]	400
COc1ccccc1O[C@H]1CCN(CCN2CCc3ccccc3C2=O)[C@@H]1C [Example 18, 2-(2-((2R,3S)-3-(2-methoxyphenoxy)-2-methylpyrrolidin-1-yl)ethyl)-3,4-dihydroisoquinolin-1(2H)-one]	20
COc1ccccc1O[C@H]1CCN(CCN2CCc3ccccc3C2=O)[C@H]1C [Example 19, 2-(2-((2S,3S)-3-(2-methoxyphenoxy)-2-methylpyrrolidin-1-yl)ethyl)-3,4-dihydroisoquinolin-1(2H)-one]	560
COc1ccccc1O[C@@H]1CCN(CCN2CCc3ccccc3C2=O)[C@@H]1C [Example 20, 2-(2-((2R,3R)-3-(2-methoxyphenoxy)-2-methylpyrrolidin-1-yl)ethyl)-3,4-dihydroisoquinolin-1(2H)-one]	10
COc1cccc(O[C@@H]2CCN(CCN3CCc4ccccc4C3=O)C2)c1 [Example 21, (R)-2-(2-(3-(3-methoxyphenoxy)pyrrolidin-1-yl)ethyl)-3,4-dihydroisoquinolin-1(2H)-one]	2560
COc1cccc(O[C@H]2CCN(CCN3CCc4ccccc4C3=O)C2)c1 [Example 22, (S)-2-(2-(3-(3-methoxyphenoxy)pyrrolidin-1-yl)ethyl)-3,4-dihydroisoquinolin-1(2H)-one]	2340
O=C1c2ccccc2CCN1CCN1CC[C@@H](Oc2cccnc2)C1 [Example 23, (R)-2-(2-(3-(pyridin-3-yloxy)pyrrolidin-1-yl)ethyl)-3,4-dihydroisoquinolin-1(2H)-one]	> 16700
O=C1c2ccccc2CCN1CCN1CC[C@H](Oc2cccnc2)C1 [Example 24, (S)-2-(2-(3-(pyridin-3-yloxy)pyrrolidin-1-yl)ethyl)-3,4-dihydroisoquinolin-1(2H)-one]	> 16700
COc1ccc(O[C@@H]2CCN(CCN3CCc4ccccc4C3=O)C2)cc1 [Example 27, (R)-2-(2-(3-(4-methoxyphenoxy)pyrrolidin-1-yl)ethyl)-3,4-dihydroisoquinolin-1(2H)-one]	2800
COc1ccc(O[C@H]2CCN(CCN3CCc4ccccc4C3=O)C2)cc1 [Example 28, (S)-2-(2-(3-(4-methoxyphenoxy)pyrrolidin-1-yl)ethyl)-3,4-dihydroisoquinolin-1(2H)-one]	10000
O=C1c2ccccc2CCN1CCN1CC[C@@H](Oc2ccncc2)C1 [Example 29, (R)-2-(2-(3-(pyridin-4-yloxy)pyrrolidin-1-yl)ethyl)-3,4-dihydroisoquinolin-1(2H)-one]	> 16700
O=C1c2ccccc2CCN1CCN1CC[C@H](Oc2ccncc2)C1 [Example 30, (S)-2-(2-(3-(pyridin-4-yloxy)pyrrolidin-1-yl)ethyl)-3,4-dihydroisoquinolin-1(2H)-one]	> 16700
N#Cc1ccc(O[C@@H]2CCN(CCN3CCc4ccccc4C3=O)C2)cc1 [Example 31, (R)-4-((1-(2-(1-oxo-3,4-dihydroisoquinolin-2(1H)-yl)ethyl)pyrrolidin-3-yl)oxy) benzonitrile]	> 16700
N#Cc1ccc(O[C@H]2CCN(CCN3CCc4ccccc4C3=O)C2)cc1 [Example 32, (S)-4-((1-(2-(1-oxo-3,4-dihydroisoquinolin-2(1H)-yl)ethyl)pyrrolidin-3-yl)oxy) benzonitrile]	> 16700
CC(CN1CCc2ccccc2C1=O)N1CC[C@@H](Oc2ccc(F)cc2)C1 (stereo partly drawn) [Example 33, 2-(2-((R)-3-(4-fluorophenoxy)pyrrolidin-1-yl)propyl)-3,4-dihydroisoquinolin-1(2H)-one]	> 10000
